Consider 1 molecule from article PMC7235904, “Is Blood a Good Indicator for Detecting Antimicrobials in Meat? Evidence for the Development of In Vivo Surveillance Methods” (Antibiotics, 2020).

This data set in a line: Relationship between concentrations detected in paired blood and muscle samples. Type of data set: in vivo, pigs. Conditions: paired pig blood and muscle samples. As for the experimental part:
After administration, animals were slaughtered at preset intervals within the withdrawal period in order to obtain samples containing different antimicrobial concentrations above and below the MRLs for muscle. Figure S1 indicates the slaughter days and the withdrawal periods set by the manufacturer for each antimicrobial compound administered. Between one and three piglets were slaughtered on the same day post-administration. The day of slaughter was calculated from the first day after the last antimicrobial treatment dose. […] Apart from samples containing antimicrobial compounds administered in vivo, and as a part of the sample bank, 15 of the 93 piglets were slaughtered after the acclimatization period and before treatment onset. Animals were stunned and slaughtered following the guidelines established by European Council Regulation (EC) No. 1099/2009 [39] regarding the protection of animals at the time of slaughter or killing. A penetrative captive bolt gun was used to stun the pigs, positioning it firmly against the skin, in the middle of the forehead, 2 cm above the line of the eyes, aiming towards the tail. […]
Data were analyzed and submitted to comparison of averages via ANOVA, followed by a post-hoc Tukey test and t-tests with GraphPad PRISM. […]

“Also recorded” adds a separate entry of the source.

Take `COc1ccc(NS(=O)(=O)c2ccc(N)cc2)nn1` [Sulfamethoxypyridazine, sulfamethoxypyridazine]: the “Concentration in blood compared to muscle” value is “three times higher in blood; also recorded: around three times higher”.
